# Assay results: patent US7547806B2, “Tannate salt of rasagiline” (Teva Pharmaceutical Industries, Ltd., priority 2006, dated 2009)
# What was measured:
# Assay type in all cases: physicochemical
# [1] = Hygroscopicity after one month storage in closed containers; parameters: key: 1: non-hygroscopic, no visible change observed; 2: slightly hygroscopic, aggregation and lumping developed, loss of flowability; 3: hygroscopic, semi-solid material; 4: deliquescent, liquefied syrup-like product; conditions: after one month in closed containers at room temperature in atmospheric air (relative humidity ~50-80%)
# Method: The hygroscopicity was determined after one month in closed containers at room temperature in atmospheric air (relative humidity ˜50-80%)
# The observed samples could be divided into four groups in accordance to their hygroscopic properties:
# 1=non-hygroscopic, no visible change observed
# 2=slightly hygroscopic, aggregation and lumping developed, loss of flowability
# 3=hygroscopic, semi-solid material
# 4=deliquescent, liquefied syrup-like product
# [2] = Water content by thermal gravimetric analysis (TGA); conditions: solid product
# Method: (§1) Thermal gravimetric analysis (TGA) was applied for measuring amounts of volatiles (residual solvents and water) in the solid. Water content was measured by Karl Fischer method (KF).
# [3] = Water content by Karl Fischer method (KF); conditions: solid product
# Method: as §1
structure (smiles),measurement,setting,value
"C#CCN[C@@H]1CCc2ccccc21 [Rasagiline base, R(+)-N-propargyl-l-aminoindan]",Hygroscopicity,[1],1
same,"Water content, % By TGA",[2],< 0.1%
same,"Water content, % By KF",[3],0.1%
